What follows are compounds tested against MAPK14 (human) (UniProt Q16539) (assay: Inhibition of MAPK14 Kinase Activity).
Sequence of MAPK14 (human) (Q16539 whole entry, looked up): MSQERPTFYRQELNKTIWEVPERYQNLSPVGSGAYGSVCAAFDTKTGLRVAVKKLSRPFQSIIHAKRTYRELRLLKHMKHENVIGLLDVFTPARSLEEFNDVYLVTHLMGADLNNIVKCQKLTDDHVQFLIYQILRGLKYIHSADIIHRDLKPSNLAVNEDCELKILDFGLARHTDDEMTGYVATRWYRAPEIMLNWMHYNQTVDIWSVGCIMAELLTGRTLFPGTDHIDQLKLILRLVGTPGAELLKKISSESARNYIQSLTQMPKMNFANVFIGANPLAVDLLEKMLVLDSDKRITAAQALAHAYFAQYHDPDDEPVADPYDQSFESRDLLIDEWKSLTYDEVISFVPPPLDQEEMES

IC50 [nM]	Structure (SMILES)
≤ 1000	CC(C)NC(=O)c1csc(-c2c(-c3ccc(F)cc3)noc2CN)n1
≤ 1000	CC(C)NC(=O)c1csc(-c2oc(CNC(=O)C=Cc3ccccc3O)nc2-c2ccc(F)cc2)n1
≤ 1000	CC(C)NC(=O)c1csc(-c2oc(CN3CCN(C(=O)c4cc(F)c(F)cc4[N+](=O)[O-])CC3)nc2-c2ccc(F)cc2)n1
≤ 1000	Cc1nc(-c2ccc(F)cc2)c(-c2nc(C(=O)NCc3ccccn3)cs2)s1
≤ 1000	Cc1nc(-c2ccc(F)cc2)c(-c2nc(C(=O)NCCCN(C)c3ccccc3)cs2)s1
≤ 1000	CC(C)NC(=O)c1csc(-c2oc(CNC(=O)c3cscn3)nc2-c2ccc(F)cc2)n1
≤ 1000	CCCN(C)Cc1onc(-c2ccc(F)cc2)c1-c1nc(C(=O)NC(C)C)cs1
≤ 1000	CC(C)NC(=O)c1csc(-c2[nH]c(CN(C)C)nc2-c2ccc(F)cc2)n1
≤ 1000	Cc1nc(-c2ccc(F)cc2)c(-c2nc(C(=O)NCc3ccc(F)cc3)cs2)s1
≤ 1000	CCOC(=O)CC(C)NC(=O)c1csc(-c2sc(C)nc2-c2ccc(F)cc2)n1 (centres undefined)
≤ 1000	CC(C)NC(=O)c1csc(-c2oc(CN(C)C)nc2-c2ccc(F)cc2)n1
≤ 1000	CC(C)NC(=O)c1csc(-c2oc(CNC(=O)C=Cc3ccc(Cl)cc3)nc2-c2ccc(F)cc2)n1
≤ 1000	Cc1nc(-c2ccc(F)cc2)c(-c2nc(C(=O)Nc3ccc4c(c3)OCO4)cs2)s1
≤ 1000	CC(=O)N1CCC(c2onc(-c3ccc(F)cc3)c2-c2nc(C(=O)NC(C)C)cs2)CC1
≤ 1000	CC(C)NC(=O)c1csc(-c2c(-c3ccc(F)cc3)n[nH]c2C2CCN(C(=O)C(C)O)CC2)n1 (centres undefined)
≤ 1000	CC(C)NC(=O)c1csc(-c2c(-c3ccc(F)cc3)noc2CNC(=O)c2ccncc2Cl)n1
≤ 1000	CC(C)NC(=O)c1csc(-c2oc(CNC(=O)c3ccc(Cl)cc3[N+](=O)[O-])nc2-c2ccc(F)cc2)n1
≤ 1000	CC(C)NC(=O)c1csc(-c2oc(CNC(=O)c3ncc[nH]3)nc2-c2ccc(F)cc2)n1
≤ 1000	C#CCNC(=O)c1csc(-c2sc(C)nc2-c2ccc(F)cc2)n1
≤ 1000	COc1ccccc1CC(=O)NCc1nc(-c2ccc(F)cc2)c(-c2nc(C(=O)NC(C)C)cs2)o1
≤ 1000	Cc1cc(C)c(C(=O)N2CCN(Cc3nc(-c4ccc(F)cc4)c(-c4nc(C(=O)NC(C)C)cs4)o3)CC2)c(C)c1
≤ 1000	CC(C)NC(=O)c1csc(-c2c(-c3ccc(F)cc3)noc2CN(C)C)n1
≤ 1000	CC(C)NC(=O)c1csc(-c2c(-c3ccc(F)cc3)n[nH]c2C2CCN(C(=O)C(C(C)C)N(C)C(=O)OC(C)(C)C)CC2)n1 (centres undefined)

The next lines start with the compound.

Structure (SMILES)	IC50 [nM]
Cc1nc(-c2ccc(F)cc2)c(-c2nc(C(=O)NCCc3c[nH]c4ccccc34)cs2)s1	≤ 1000
CC(C)NC(=O)c1csc(-c2oc(CN3CCN(C(=O)c4cccc(Cl)c4[N+](=O)[O-])CC3)nc2-c2ccc(F)cc2)n1	≤ 1000
Cc1nc(-c2ccc(F)cc2)c(-c2nc(C(=O)NC(C)C)cs2)o1	≤ 1000
CC(C)NC(=O)c1csc(-c2oc(CNCCC(C)(C)C)nc2-c2ccc(F)cc2)n1	≤ 1000
O=C(NCc1cccnc1)c1csc(-c2c(-c3ccc(F)cc3)n[nH]c2C2CCNCC2)n1	≤ 1000
Cc1nc(-c2ccc(F)cc2)c(-c2nc(C(=O)NCc3ccc(N(C)C)cc3)cs2)s1	≤ 1000
Cc1nc(-c2ccc(F)cc2)c(-c2nc(C(=O)NCc3ccccc3C)cs2)s1	≤ 1000
Cc1[nH]nc(-c2ccc(F)cc2)c1-c1nc(C(=O)NCc2cccnc2)cs1	≤ 1000
CC(C)NC(=O)c1csc(-c2c(-c3ccc(F)cc3)n[nH]c2C2CCN(C(=O)C3CN(C(=O)OC(C)(C)C)CCN3)CC2)n1 (centres undefined)	≤ 1000
CC(C)NC(=O)c1csc(-c2c(-c3ccc(F)cc3)n[nH]c2C2CCN(C(=O)c3ccnc(Cl)c3)CC2)n1	≤ 1000
Cc1nc(-c2ccc(F)cc2)c(-c2nc(C(=O)NCCCO)cs2)s1	≤ 1000
CCNC(=O)c1csc(-c2sc(C)nc2-c2ccc(F)cc2)n1	≤ 1000
CC(C)NC(=O)c1csc(-c2oc(CN3CCN(C(=O)c4ccc(Oc5ccccc5)cc4)CC3)nc2-c2ccc(F)cc2)n1	≤ 1000
COCc1onc(-c2ccc(Cl)cc2)c1-c1ccn(C(=O)NC(C)C)n1	≤ 1000
COc1ccc(NC(=O)c2csc(-c3sc(C)nc3-c3ccc(F)cc3)n2)c(C)c1	≤ 1000
CC(C)NC(=O)c1csc(-c2oc(CN3CCN(C(=O)c4cc(Cl)ccc4O)CC3)nc2-c2ccc(F)cc2)n1	≤ 1000
CC(C)NC(=O)c1csc(-c2oc(CNC(=O)c3ccc(Cl)cc3Cl)nc2-c2ccc(F)cc2)n1	≤ 1000
CC(=O)Nc1cccc(C(=O)N2CCN(Cc3nc(-c4ccc(F)cc4)c(-c4nc(C(=O)NC(C)C)cs4)o3)CC2)c1	≤ 1000
CC(C)NC(=O)c1csc(-c2oc(CN3CCN(C(=O)c4cc([N+](=O)[O-])ccc4Cl)CC3)nc2-c2ccc(F)cc2)n1	≤ 1000
Cc1c(C(=O)N2CCC(c3[nH]nc(-c4ccc(F)cc4)c3-c3nc(C(=O)NC(C)C)cs3)CC2)oc2ccccc12	≤ 1000
CC(C)NC(=O)c1csc(-c2c(-c3ccc(F)cc3)n[nH]c2C2CCN(C(=O)CCc3nc4ccccc4[nH]3)CC2)n1	≤ 1000

Structure (SMILES)	IC50 [nM]
CC(C)NC(=O)c1csc(-c2c(-c3ccc(F)cc3)n[nH]c2C2CCN(C(=O)c3ccc(C=O)cc3)CC2)n1	≤ 1000
CC(C)NC(=O)c1csc(-c2oc(CNC(=O)c3ccncc3Cl)nc2-c2ccc(F)cc2)n1	≤ 1000
CCOC(=O)CC(=O)N1CCC(c2[nH]nc(-c3ccc(F)cc3)c2-c2nc(C(=O)NC(C)C)cs2)CC1	≤ 1000
CCCC(C)NC(=O)c1csc(-c2c(-c3ccc(F)cc3)n[nH]c2C2CCNCC2)n1 (centres undefined)	≤ 1000
CCNC(=O)c1csc(-c2c(-c3ccc(F)cc3)n[nH]c2C2CCNCC2)n1	≤ 1000
COC[C@H]1CCCN1C(=O)c1csc(-c2sc(C)nc2-c2ccc(F)cc2)n1	≤ 1000
Cc1cccc([N+](=O)[O-])c1C(=O)N1CCN(Cc2nc(-c3ccc(F)cc3)c(-c3nc(C(=O)NC(C)C)cs3)o2)CC1	≤ 1000
CC(=O)Oc1ccccc1C(=O)NCc1onc(-c2ccc(F)cc2)c1-c1nc(C(=O)NC(C)C)cs1	≤ 1000
CCC(CO)NC(=O)c1csc(-c2c(-c3ccc(F)cc3)n[nH]c2C2CCNCC2)n1 (centres undefined)	≤ 1000
Cc1nc(-c2ccc(F)cc2)c(-c2nc(C(=O)NCCO)cs2)s1	≤ 1000
Cc1nc(-c2ccc(F)cc2)c(-c2nc(C(=O)NCc3cccc(Cl)c3)cs2)s1	≤ 1000
CC(C)NC(=O)c1csc(-c2c(-c3ccc(F)cc3)n[nH]c2C2CCN(C(=O)c3ccccc3C=O)CC2)n1	≤ 1000
Cc1nc(-c2ccc(F)cc2)c(-c2nc(C(=O)Nc3ccc(N(C)C)cc3)cs2)s1	≤ 1000
Cc1nc(-c2ccc(F)cc2)c(-c2nc(C(=O)NCc3ccc(Cl)cc3)cs2)s1	≤ 1000
COc1cc(C(=O)NCc2nc(-c3ccc(F)cc3)c(-c3nc(C(=O)NC(C)C)cs3)o2)c([N+](=O)[O-])cc1OC	≤ 1000
Cc1nc(-c2ccc(F)cc2)c(-c2nc(C(=O)NCc3ccc(F)cc3F)cs2)s1	≤ 1000
COc1cc(OC)c(C(=O)NCc2nc(-c3ccc(F)cc3)c(-c3nc(C(=O)NC(C)C)cs3)o2)c(OC)c1	≤ 1000
CC(C)NC(=O)c1csc(-c2c(-c3ccc(F)cc3)n[nH]c2C2CCN(C(=O)[C@H](C)O)CC2)n1	≤ 1000
CC(=O)Nc1ccc(NC(=O)c2csc(-c3sc(C)nc3-c3ccc(F)cc3)n2)cn1	≤ 1000
CC(C)NC(=O)c1csc(-c2c(-c3ccc(F)cc3)n[nH]c2C2CCN(C(=O)C(F)(F)F)CC2)n1	≤ 1000
